# According to patent US7973039B2, “Sulfonyl amino cyclic derivatives and use thereof” (Merck Serono SA, priority 2004, dated 2011):
# Experiments:
# [1] = target: metalloelastase (MMP-12) (Homo sapiens, UniProt P39900); assay: MMP-12 enzyme inhibition assay (coumarin-labelled peptide substrate McaPLGLDpaAR); assay type: biochemical; conditions: fluorogenic substrate McaPLGLDpaAR, 37° C., 2 hours
# Experimental: (§1) Compounds of the invention were tested to assess their activities as inhibitors of MMP-1, MMP-2, MMP-9 and MMP-12.
# (§2) Stock solutions were made up as follows: Assay Butter: 100 mM Tris-HCl pH 7.6 containing 100 mM NaCl, 10 mM CaCl2, and 0.05% Brij 35.
# Substrate: 0.4 mM McaPLGLDpaAR (from Bachem) (0.437 mg/ml) stock solution in 100% DMSO (stored at −20° C.). Dilute to 8 μM in assay butter. […]
# (§3) Test Compounds were prepared initially as 10 mM compound solution in 100% DMSO, diluted to 1 mM in 100% DMSO, then serially diluted 3-fold in 100% DMSO across columns 1-10 of a 96-well microtitre plate Assay concentration range, 100 μM (column 1) to 5.1 nM (column 10).
# (§4) The assay was performed in a total volume of 100 μL per well in 96-well microtitre plates. Activated enzyme (20 μL) was added to the wells followed by 20 μL of assay butter. Appropriate concentrations of test compounds dissolved in 10 μL of DMSO were then added followed by 50 μL of McaPLGLDpaAR (8 μM, prepared by dilution of DMSO stock in assay butter). For each as say ten concentrations of test compound were examined in duplicate. Control wells lack either enzyme or test compound. The reactions were incubated at 37° C. for 2 hours. The fluorescence at 405 nm was measured immediately with an SLT Fluostar fluorometer (SL T Labinstruments GmbH, Grödig, Austria) using 320 nm excitation, without stopping the reaction.
# (§5) The effect of the test compound was determined from the dose response curve generated by the 10 duplicate concentrations of inhibitor. The IC50 (the concentration of compound required to give a 50% decrease in enzyme activity) was obtained by fitting data to the equation, Y=a+((b−a)/(1+(c/X)^d)). (Y=inhibition achieved for a particular dose; X=the dose in nM; a=minimum y or zero % inhibition; b=maximum y or 100% inhibition; c=is the IC50; d=is the slope). The result was rounded to one significant figure.
# Compounds of the invention were tested for inhibitory activity against metalloelastase (MMP-12) in an assay using a coumarin-labelled peptide substrate, (7-methoxycoumarin-4-yl)acetyl-Pro-Leu-Gly-Leu-(3-[2,4dinitrophenyl]-L-2,3-diaminopropionyl)-Ala-Arg-NH2 (McaPLGLDpaAR) (Knight et al, 1992, above). The protocol for this assay was as described for the MMP-9 assay above.
# [2] = target: T1, collagenase (MMP-1) (Homo sapiens, UniProt P03956); assay: MMP-1 enzyme inhibition assay (coumarin-labelled peptide substrate McaPLGLDpaAR); assay type: biochemical; conditions: fluorogenic substrate McaPLGLDpaAR, 37° C., 2 hours
# T1 sequence (P03956 100-469): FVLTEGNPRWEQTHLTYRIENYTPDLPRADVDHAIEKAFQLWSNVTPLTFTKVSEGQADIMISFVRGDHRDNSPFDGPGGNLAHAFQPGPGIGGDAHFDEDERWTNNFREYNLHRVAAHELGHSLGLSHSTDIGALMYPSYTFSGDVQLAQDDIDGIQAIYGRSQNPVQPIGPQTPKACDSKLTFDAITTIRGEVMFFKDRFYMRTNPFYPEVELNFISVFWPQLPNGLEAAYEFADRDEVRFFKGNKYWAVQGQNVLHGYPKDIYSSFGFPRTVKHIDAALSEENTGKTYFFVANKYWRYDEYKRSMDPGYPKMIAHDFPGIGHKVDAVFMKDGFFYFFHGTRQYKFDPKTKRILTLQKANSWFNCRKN
# Experimental: as §1, §2
# Substrate: 0.4 mM McaPLGLDpaAR (from Bachem) (0.437 mg/ml) stock solution in 100% DMSO (stored at −20° C.). Dilute to 8 μM in assay butter.
# Enzyme: Recombinant human 92 kDa gelatinase (MMP-9; APMA (4-aminophenyl mercuric acetate)—activated if necessary) appropriately diluted in assay butter.
# as §3, §4, §5
# Compounds of the invention were tested for inhibitory activity against collagenase (MMP-1) in an assay using a coumarin-labelled peptide substrate, (7-methoxycoumarin-4-yl)acetyl-Pro-Leu-Gly-Leu-(3-[2,4-dinitrophenyl]-L-2,3diaminopropionyl)-Ala-Arg-NH2 (McaPLGLDpaAR) (Knight et al, 1992, above). The protocol for this assay was as described for the MMP-9 assay above.
# [3] = test system: IL-2-induced peritoneal recruitment of lymphocytes; assay: IL-2-induced peritoneal recruitment of lymphocytes; assay type: in vivo, C3H/HEN mice; conditions: Mus musculus, Lymphocyte; mice, route po, given 15 min prior to IL-2 (20 μg/kg i.p.), lymphocytes counted 24 h after IL-2; read-out: ED50 in IL-2-induced peritoneal recruitment of lymphocytes model
# Experimental: Administration of IL-2 intraperitoneally causes migration of lymphocytes into the intraperitoneal cavity. This is a model for the cellular migration that occurs during inflammation.
# C3H/HEN mice (Elevage Janvier, France) were intraperitoneally injected with IL-2 (Serono Pharmaceutical Research Institute, 20 μg/kg, in saline).
# Compounds of the invention were suspended in 0.5% carboxymethylcellulose (CMC)/0.25% tween-20 and were administered by s.c. or p.o. route (10 ml/kg) 15 min prior to administration of IL-2.
# Twenty-four hours after administration of IL-2, peritoneal white blood cells were collected by 3 successive lavages of the peritoneal cavity with 5 ml phosphate buffered saline (PBS)-1 mM EDTA (+4° C.). The suspension was centrifuged (1700 g×10 min at +4° C.). The resulting pellet was suspended in 1 ml PBS-1 mM EDTA.
# Lymphocytes were identified and counted using a Beckman/Coulter counter.
# The animals were divided into 6 groups (6 mice each group):
# Group 1: (baseline) received 0.5% CMC/0.25% tween-20 (vehicle of compound of the invention) and saline (vehicle of IL-2);
# Group 2: (control IL-2) received 0.5% CMC/0.25% tween-20 and injection of IL-2;
# Group 3: Experimental group (Compound of the invention Dose 1) received a compound of the invention and injection of IL-2; […]
# Inhibition of lymphocyte recruitment was calculated as follows: […]
# Chain of metalloelastase (MMP-12) (P39900 106-470): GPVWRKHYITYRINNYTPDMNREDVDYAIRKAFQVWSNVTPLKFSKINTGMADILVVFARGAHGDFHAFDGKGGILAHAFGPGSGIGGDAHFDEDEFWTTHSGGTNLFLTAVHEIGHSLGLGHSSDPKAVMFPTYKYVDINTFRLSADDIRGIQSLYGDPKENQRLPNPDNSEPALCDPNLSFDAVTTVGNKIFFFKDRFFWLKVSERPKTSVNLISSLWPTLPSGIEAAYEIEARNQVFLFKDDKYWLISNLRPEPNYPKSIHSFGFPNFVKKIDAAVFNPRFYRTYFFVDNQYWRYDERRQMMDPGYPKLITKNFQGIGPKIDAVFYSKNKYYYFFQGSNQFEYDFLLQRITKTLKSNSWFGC
IC50 [1] [nM],IC50 [2] [nM],SMILES,ED50 [3] [mg/kg]
40,> 5000,"O=CN(O)C(C#CCN1CCCC1)CS(=O)(=O)N1CCN(c2ccc(F)cc2)CC1 (centres unmarked) [Example 64, [1-({[4-(4-fluorophenyl)piperazin-1-yl]sulfonyl}methyl)-4-pyrrolidin-1-ylbut-2-yn-1-yl]hydroxyformamide]",
24,> 5000,"CCCCCC#CC(CS(=O)(=O)N1CCCN(c2ccc(OCC)cc2)CC1)N(O)C=O (centres unmarked) [Example 61, [1-({[4-(4-ethyloxyphenyl)-1,4-diazepan-1-yl]sulfonyl}methyl)oct-2-yn-1-yl]hydroxyformamide]",
58,> 5000,"O=CN(O)C(C#Cc1ccccc1)CS(=O)(=O)N1CCN(c2ccc(F)cc2)CC1 (centres unmarked) [Example 4, 1-({[4-(4-fluorophenyl)-1-piperazinyl]sulfonyl}methyl)-3-phenyl-2-propynyl(hydroxy)formamide]",
33,> 5000,"COc1ccc(N2CCN(S(=O)(=O)CC(C#Cc3cccc(OC)c3)N(O)C=O)CC2)cc1 (centres unmarked) [Example 10, hydroxy[3-(3-methoxyphenyl)-1-({[4-(4-methoxyphenyl)-1-piperazinyl]sulfonyl}methyl)-2-propynyl]formamide]",
6,> 5000,"CCN(CC)CC#CC(CS(=O)(=O)N1CCC(c2ccc(OC)cc2)CC1)N(O)C=O (centres unmarked) [Example 37, [4-(diethylamino)-1-({[4-(4-methyloxyphenyl)piperidin-1-yl]sulfonyl}methyl)but-2-yn-1-yl]hydroxyformamide]",
20,> 5000,"CCCCCC#CC(CS(=O)(=O)N1CCN(c2ccc(F)cc2)CC1)N(O)C=O (centres unmarked) [Example 7, 1-({[4-(4-fluorophenyl)-1-piperazinyl]sulfonyl}methyl)-2-octynyl(hydroxy)formamide]",2
21,> 5000,"O=CN(O)C(C#CCc1ccccc1)CS(=O)(=O)N1CCN(c2ccc(F)cc2)CC1 (centres unmarked) [Example 6, 1-({[4-(4-fluorophenyl)-1-piperazinyl]sulfonyl}methyl)-4-phenyl-2-butynyl (hydroxy)formamide]",
95,> 5000,"O=CN(O)C(C#Cc1ccc(-c2ncon2)cc1)CS(=O)(=O)N1CCN(c2ccc(F)cc2)CC1 (centres unmarked) [Example 27, {1-({[4-(4-fluorophenyl)piperazin-1-yl]sulfonyl}methyl)-3-[4-(1,2,4-oxadiazol-3-yl)phenyl]prop-2-yn-1-yl}hydroxyformamide]",
46,> 5000,"O=CN(O)C(C#Cc1ccc2c(c1)OCO2)CS(=O)(=O)N1CCN(c2ccc(F)cc2)CC1 (centres unmarked) [Example 1, 3-(1,3-benzodioxol-5-yl)-1 ({[4-(4-fluorophenyl)-1-piperazinyl]sulfonyl}methyl)-2-propynyl(hydroxy)formamide]",0.8
48,> 5000,"COc1ccc(N2CCN(S(=O)(=O)CC(C#Cc3cccnc3)N(O)C=O)CC2)cc1 (centres unmarked) [Example 9, hydroxy[1-({[4-(4-methoxyphenyl)-1-piperazinyl]sulfonyl}methyl)-3-(3-pyridinyl)-2-propynyl]formamide]",
18,> 5000,CCCCCC#CC(CS(=O)(=O)N1CCC(c2ccc(OC)cc2)CC1)N(O)C=O (centres unmarked) [Example 19],
20,> 5000,"CC(C)(CC#Cc1ccccc1)C(CS(=O)(=O)N1CCN(c2ccc(F)cc2)CC1)N(O)C=O (centres unmarked) [Example 36, [1-({[4-(4-fluorophenyl)piperazin-1-yl]sulfonyl}methyl)-2,2-dimethyl-5-phenylpent-4-yn-1-yl]hydroxyformamide]",
